Experimental data taken from patent US20240100068A1, “METHODS COMPRISING ADMINISTRATION OF A GLUCOCORTICOID RECEPTOR AGONIST AND AN INHIBITOR OF CALCINEURIN” (Chengdu Anticancer Bioscience, Ltd., priority 2022, published 2024).
“Also recorded” adds a separate entry of the source. Read-outs that look alike come from different tables or passages of the source.

What was measured:
T2MycNick cells [1] = experiment: Proliferation and viability of cells cultured under sub-confluence; format: cell-based, murine; conditions: for effect on proliferation and viability: cells grown at sub-confluence
Description: (§1) FIG. 1A is a graph showing that DEX has no effect on the viability of murine liver cancer cell lines cultured under sub-confluence. The isogenic murine liver cancer cell lines T2Puro and T2MycNick were passaged and exposed to vehicle or 2 μM of DEX at a confluence of 10%. The cell viability was assayed with Trypan blue exclusion assays at day 3.
FIG. 1C is a graph showing DEX has no effect on the proliferation of murine liver cancer cell lines cultured under sub-confluence the live cell number was calculated daily with an automatic Luna cell counter and relative cell number was shown for T2MycNick.
Exponentially growing murine cells expressing Myc-Nick (T2MycNick cells) were passaged into 24-well plates at a final confluence of 20% and were allowed to attach overnight before being exposed to a test compound at a concentration of 10 μM. T2MycNick cells were generated by expressing the Myc-nick, the N-terminal of the Myc protein, in the T2 cell line, which was, in turn, derived from a MYC-driven mouse liver cancer (Shachaf et al., Nature 2004 Oct. 28; 431(7012):1112-7). The cells were subjected to daily analysis of viability and morphology under an inverted tissue culture microscope or GE InCell Analyzer 2000. Cell density was documented after staining of DNA with PI 7-10 days after the initiation of treatment.

MycNick cells [2] = experiment: Soft agar colony formation assay (anchorage-independent growth); format: cell-based, murine; conditions: FIG. 9: 2 μM of DEX or 5 μM of HC, up to 22 days
Description: FIG. 9. are images (left) and graphs (right) showing both Hydrocortisone and Dexamethasone suppress the anchorage-independent growth of T2MycNick cells. The T2MycNick cells were mixed with 0.35% soft agar and transferred to 24-well microplates 24 hours before exposed to vehicle, 2 μM of DEX or 5 μM of HC. Images were acquired with an inverted tissue culture microscope at 1, 9 and 22 days after initiation of drug treatment. The sizes of spheroids were quantified with Image J (right).
The soft agar colony formation assay was performed in 6-well plates with two layers of agar. For the first, 0.75% agar in DMEM medium was melted in a microwave oven and poured to form a bottom layer. Once solidified, 10-100K cells in 1 ml of DMEM containing 0.35% agar was added to form the top layer, which was later covered with 0.5 ml of DMEM. Cell culture medium was changed once every two days until colonies were ready to photograph. The antitumor activity of Hydrocortisone and Dexamethasone was tested in soft agar assays. […] The suppression of growth of the cell line in 3D culture is consistent with the suppressive impact of these compounds on cell density when cells were allowed to grow beyond confluence.

[3] = system: human lung cancer cell line A549; experiment: Final cell density and vacuolation in lung cancer cell line A549; format: cell-based; conditions: for final cell density: 2 weeks
Description: (§2) FIG. 5B are graphs and images showing Hydrocortisone and Dexamethasone reduce the final cell density in a lung cancer cell line A549 and a breast cancer cell line MDA-MB-231). The cells were exposed to vehicle or the indicated concentrations of either Hydrocortisone or Dexamethasone for 2 weeks. The cells were then either numerated with a Luna cell counter or fixed and stained with PI for nuclei to reveal the cell density.
Cells were treated for 10 days with Hydrocortisone and a Calcineurin inhibitor either individually or in combination and then stained with PI for DNA before imaged with an EVOS FL auto microscope.

[4] = system: breast cancer cell line MDA-MB-231; experiment: Final cell density and vacuolation in breast cancer cell line MDA-MB-231; format: cell-based; conditions: for final cell density: 2 weeks
Excerpt: as §2

[5] = system: murine lung cancer cell line TA2280; experiment: Final cell density and vacuolation in lung cancer cell line TA2280; format: cell-based; conditions: for final cell density: 2 weeks
Excerpt: FIG. 5A. are images showing Hydrocortisone and Dexamethasone reduce the final cell density in a murine lung cancer cell line TA2280. The cells were exposed to vehicle or the indicated concentrations of either Hydrocortisone or Dexamethasone for 2 weeks. The cells were then fixed and stained with PI for nuclei to reveal the cell density.

T2MycNick cells [6] = experiment: IF analysis of cell-cell junctions (ZO-1, β-catenin) in monolayer zones; format: cell-based, murine; conditions: 7 days
Description: FIG. 14A. Are images (left) and graphs (right) showing relocation of β-catenin to the cell-cell junctions in monolayer zones. The murine liver cancer cell line T2MycNick was treated with the indicated concentration of Hydrocortisone or Dexamethasone for 7 days before fixed for IF analysis of β-catenin. DNA was stained with DAPI. Images were acquired with an EVOS FL auto microscope. The relative signal density alone the line in each subpanel was quantified with Image J.
FIG. 14B. Are images (left) and graphs (right) showing relocation of ZO-1 to the cell-cell junctions in monolayer zones. […] The relative signal density alone the line in each subpanel was quantified with Image J. […]
The following are primary antibodies used in this study. […] Primary antibodies were detected with Rhodamine (TRITC)-conjugated AffiniPure Donkey Anti-Rabbit IgG (H+L) (Cat. # 711-025-152), Fluorescein(FITC)-conjugated Affinipure Goat Anti-Rabbit IgG (H+L) (Cat.#111-095-003), Alexa Fluor488 Affinipure Goat Anti-Mouse IgG (H+L) (Cat. #115-545-003 from Jackson ImmunoResearch at 1:500 dilution. After immunostaining, cells were mounted on microscope slides with 4′,6′-diamidino-2-phenylindole (DAPI)-containing Vectashield mounting solution (Vector Laboratories, Cat. # H1500). For fluorescence detection, an EVOS FL Auto microscope (Thermo Fisher) was used.

T2Bc1-xL cells = experiment: Restoration of contact inhibition and induction of vacuolation in Bc1-xL expressing cells; format: cell-based, murine; conditions: FIG. 6A: 7 days, 2 μM of DEX
Description: (§3) The indicated cell isogenic cell lines were exposed for 7 days to 2 μM of DEX. The cells were then imaged under an inverted tissue culture microscope (top left) or an EVOS FL Auto microscope after staining with Acridine Orange (bottom left). The area occupied by drug-induced vacuoles was quantified with Image J and data (bottom right). At the endpoint, the cells were also numerated with a Luna cell counter and relative cell number is shown (top right).

T2MycNick cells [7] = experiment: Testing compounds for their ability of restoring contact inhibition (vacuolation, cell density); format: cell-based, murine; conditions: for minimal effective concentration: T2MycNick cells grown beyond confluence, 7-14 days; for diameters of large vacuoles: cells that overgrew beyond confluence; for contact inhibition restoration (CIR) activity: high-density cells
T2Puro [8] = experiment: Restoration of contact inhibition and induction of vacuolation in control cell line; format: cell-based, murine; conditions: FIG. 6A: 7 days, 2 μM of DEX
Description: as §3

MycNick cells [9] = experiment: MTT assay for cellular proliferation; format: cell-based, murine; conditions: confluence of 20-30%, 1 nM to 5 μM
T2Puro [10] = experiment: Proliferation and viability of cells cultured under sub-confluence; format: cell-based, murine
Description: as §1
FIG. 1B is a graph showing DEX has no effect on the proliferation of murine liver cancer cell lines cultured under sub-confluence. The live cell number was calculated daily with an automatic Luna cell counter and relative cell number was shown for T2Puro.

SMILES | effect on proliferation and viability (T2MycNick cells [1]) | anchorage-independent growth (MycNick cells [2]) | vacuolation [3] | final cell density [3] | vacuolation [4] | final cell density [4] | vacuolation [5] | final cell density [5] | cell-cell junctions in monolayer zones (T2MycNick cells [6]) | sensitivity (contact inhibition, vacuolation) (T2Bc1-xL cells) | diameters of large vacuoles (T2MycNick cells [7]) | contact inhibition restoration (CIR) activity (T2MycNick cells [7]) | response (contact inhibition, vacuolation) (T2Puro [8]) | also measured
C[C@]12CCC(=O)C=C1CC[C@@H]1[C@@H]2[C@@H](O)C[C@@]2(C)[C@H]1CC[C@]2(O)C(=O)CO [HC001, Hydrocortisone] | no detectable effect | effectively suppressed; also recorded: suppress | induction of vacuolation | Reduction of final cell density | induction of vacuolation | Reduction of final cell density | induction of vacuolation | Reduction of final cell density | restored | did not confer sensitivity | about 20 μm | restored contact inhibition | did not respond | cellular proliferation and viability (T2MycNick cells [1]; 5 μM, grown in sub-confluence): did not affect; minimal effective concentration (T2MycNick cells [7]; Mus musculus, PI staining, read-out: Conc that reduces > 50% in the cell density): 0.156 µM; minimal effective concentration (T2MycNick cells [7]; Mus musculus, vacuolation covering no less than 10% of a random field, read-out: Min. effective conc. that elicits vacuolation): 0.156 µM; proliferation (MTT) (MycNick cells [9]): neither Hydrocortisone nor Cyclosporin A affected the proliferation
C[C@@H]1C[C@H]2[C@@H]3CCC4=CC(=O)C=C[C@]4(C)[C@@]3(F)[C@@H](O)C[C@]2(C)[C@@]1(O)C(=O)CO [HC002, Dexamethasone] | no detectable effect | effectively suppressed; also recorded: suppress | induction of vacuolation | Reduction of final cell density | induction of vacuolation | Reduction of final cell density | induction of vacuolation | Reduction of final cell density | restored | did not confer sensitivity | about 20 μm | restored contact inhibition | did not respond | viability (Trypan blue exclusion) (T2MycNick cells [1]; 2 μM, confluence of 10%, day 3): no effect; proliferation (relative live cell number) (T2MycNick cells [1]; sub-confluence, counted daily): no effect; viability (Trypan blue exclusion) (T2Puro [10]; 2 μM, confluence of 10%, day 3): no effect; proliferation (relative live cell number) (T2Puro [10]; sub-confluence, counted daily): no effect; minimal effective concentration (T2MycNick cells [7]; PI staining, read-out: Conc that reduces > 50% in the cell density): 0.125 µM; minimal effective concentration (T2MycNick cells [7]; vacuolation covering no less than 10% of a random field, read-out: Min. effective conc. that elicits vacuolation): 0.125 µM
